According to ChEMBL document CHEMBL4251606, “Design and characterization of α-lipoic acyl shikonin ester twin drugs as tubulin and PDK1 dual inhibitors” (Eur J Med Chem, 2018):
Active and inactive are the calls of the source. The rule behind the calls is not given here.

Key:
Mus musculus = assay: Inhibition of PDK1 in mouse xenografted with human HeLa cells assessed as upregulation of PDH-E1 alpha expression in tumor tissue at 1 to 2 mg/kg, ip administered once in every 2 days for 15 days by immunohistochemistry; assay type: functional, organism-based
HeLa [1] = assay: Induction of apoptosis in human HeLa cells assessed as necrotic cells at 4 uM after 24 hrs by Annexin V-APC/propidium iodide staining-based FACScan flow cytometric analysis (reference value: 1.18%); assay type: functional
HeLa [2] = assay: Antiproliferative activity against human HeLa cells after 24 hrs by MTT assay; assay type: functional, cell-based
HeLa [3] = assay: Induction of apoptosis in human HeLa cells assessed as decrease in Bcl2 expression up to 8 uM after 24 hrs by Western blot analysis; assay type: functional, cell-based
[4] = target: [Pyruvate dehydrogenase (acetyl-transferring)] kinase isozyme 1, mitochondrial (Homo sapiens) (UniProt Q15118); assay: Inhibition of PDK1 in human HeLa cells assessed as decrease in PDH-E1 alpha p-ser293 expression up to 8 uM by Western blot analysis; assay type: cell-based
HeLa [5] = assay: Induction of apoptosis in human HeLa cells assessed as early apoptotic cells at 6 uM after 12 hrs by Annexin V-APC/propidium iodide staining-based FACScan flow cytometric analysis (reference value: 2.45%); assay type: functional
MDA-MB-231 = assay: Antiproliferative activity against human MDA231 cells after 24 hrs by MTT assay; assay type: functional, cell-based; details: MDA-MB-231, 24 h
HeLa [6] = assay: Induction of apoptosis in human HeLa cells assessed as necrotic cells at 6 uM after 24 hrs by Annexin V-APC/propidium iodide staining-based FACScan flow cytometric analysis (reference value: 0.725%); assay type: functional
[7] = target: [Pyruvate dehydrogenase (acetyl-transferring)] kinase isozyme 1, mitochondrial (Homo sapiens) (UniProt Q15118); assay: Inhibition of PDK1 in human HeLa cells assessed as decrease in PDH-E1 alpha p-ser300 expression at 6 uM by Western blot analysis; assay type: cell-based
HeLa [8] = assay: Induction of apoptosis in human HeLa cells assessed as late apoptotic cells at 6 uM after 24 hrs by Annexin V-APC/propidium iodide staining-based FACScan flow cytometric analysis (reference value: 3.84%); assay type: functional
HeLa [9] = assay: Induction of apoptosis in human HeLa cells assessed as late apoptotic cells by measuring FL3-H+ cells at 2.8 uM after 24 hrs by propidium iodide staining-based FACScan flow cytometric analysis (reference value: 2.14%); assay type: functional
HeLa [10] = assay: Induction of apoptosis in human HeLa cells assessed as early apoptotic cells at 1 uM after 24 hrs by Annexin V-APC/propidium iodide staining-based FACScan flow cytometric analysis (reference value: 6.46%); assay type: functional
HeLa [11] = assay: Induction of apoptosis in human HeLa cells assessed as late apoptotic cells at 6 uM after 12 hrs by Annexin V-APC/propidium iodide staining-based FACScan flow cytometric analysis (reference value: 3.84%); assay type: functional
HeLa [12] = assay: Induction of apoptosis in human HeLa cells assessed as late apoptotic cells at 2 uM after 24 hrs by Annexin V-APC/propidium iodide staining-based FACScan flow cytometric analysis (reference value: 7.22%); assay type: functional
HeLa [13] = assay: Induction of apoptosis in human HeLa cells assessed as necrotic cells at 6 uM after 12 hrs by Annexin V-APC/propidium iodide staining-based FACScan flow cytometric analysis (reference value: 0.725%); assay type: functional
HeLa [14] = assay: Induction of apoptosis in human HeLa cells assessed as viable cells at 6 uM after 24 hrs by Annexin V-APC/propidium iodide staining-based FACScan flow cytometric analysis (reference value: 93%); assay type: functional; details: read-out: Activity
[15] = target: [Pyruvate dehydrogenase (acetyl-transferring)] kinase isozyme 1, mitochondrial (Homo sapiens) (UniProt Q15118); assay: Inhibition of PDK1 in human HeLa cells assessed as increase in PDH activity at 1 to 1.5 uM by microplate assay; assay type: cell-based
HeLa [16] = assay: Induction of apoptosis in human HeLa cells assessed as late apoptotic cells by measuring FL3-H+ cells at 4 uM after 12 hrs by propidium iodide staining-based flow cytometric analysis (reference value: 3.66%); assay type: functional
HeLa [17] = assay: Induction of apoptosis in human HeLa cells assessed as necrotic cells at 6 uM after 36 hrs by Annexin V-APC/propidium iodide staining-based FACScan flow cytometric analysis (reference value: 0.725%); assay type: functional
HEK-293T = assay: Antiproliferative activity against human 293T cells after 24 hrs by MTT assay; assay type: cell-based
HeLa [18] = assay: Cell cycle arrest in human HeLa cells assessed as accumulation of cells at G1 phase at 8 uM after 24 hrs by propidium iodide staining-based FACScan flow cytometric analysis (reference value: 62.92%); assay type: functional
HeLa [19] = assay: Antitumor activity against human HeLa cells xenografted in nude mouse assessed as increase in mouse survival at 2 mg/kg, ip administered once in every 2 days for 15 days relative to control; assay type: functional, organism-based
HeLa [20] = assay: Induction of apoptosis in human HeLa cells assessed as late apoptotic cells by measuring FL3-H+ cells at 5.6 uM after 24 hrs by propidium iodide staining-based FACScan flow cytometric analysis (reference value: 2.14%); assay type: functional
HeLa [21] = assay: Reduction in glucose consumption in human HeLa cells at 2 to 8 uM; assay type: functional, cell-based
[22] = target: [Pyruvate dehydrogenase (acetyl-transferring)] kinase isozyme 1, mitochondrial (Homo sapiens) (UniProt Q15118); assay: Inhibition of PDK1 in human HeLa cells assessed as decrease in PDH-E1 alpha p-ser300 expression up to 8 uM by Western blot analysis; assay type: cell-based
HeLa [23] = assay: Induction of apoptosis in human HeLa cells assessed as late apoptotic cells by measuring FL3-H+ cells at 6 uM after 24 hrs by propidium iodide staining-based FACScan flow cytometric analysis (reference value: 2.13%); assay type: functional
HeLa [24] = assay: Cell cycle arrest in human HeLa cells assessed as accumulation of cells at S phase at 2 uM after 24 hrs by propidium iodide staining-based FACScan flow cytometric analysis (reference value: 20.16%); assay type: functional
HeLa [25] = assay: Induction of apoptosis in human HeLa cells assessed as increase in Bax expression up to 8 uM after 24 hrs by Western blot analysis; assay type: functional, cell-based
HeLa [26] = assay: Cell cycle arrest in human HeLa cells assessed as accumulation of cells at G2/M phase at 2 uM after 24 hrs by propidium iodide staining-based FACScan flow cytometric analysis (reference value: 16.82%); assay type: functional
HeLa [27] = assay: Induction of apoptosis in human HeLa cells assessed as viable cells at 6 uM after 12 hrs by Annexin V-APC/propidium iodide staining-based FACScan flow cytometric analysis (reference value: 93%); assay type: functional; details: read-out: Activity
HeLa [28] = assay: Induction of mitochondrial membrane potential loss in human HeLa cells assessed as cells with low membrane potential at 2 uM after 12 hrs by JC-1 staining-based flow cytometric analysis (reference value: 9.31%); assay type: functional
HeLa [29] = assay: Induction of apoptosis in human HeLa cells assessed as early apoptotic cells at 4 uM after 24 hrs by Annexin V-APC/propidium iodide staining-based FACScan flow cytometric analysis (reference value: 6.46%); assay type: functional
A549 = assay: Antiproliferative activity against human A549 cells after 24 hrs by MTT assay; assay type: functional, cell-based; details: A549, 24 h
HeLa [30] = assay: Induction of mitochondrial membrane potential loss in human HeLa cells assessed as increase in green fluorescence at 2 to 4 uM by JC-1 staining-based fluorescence microscopic analysis; assay type: functional, cell-based
HeLa [31] = assay: Induction of mitochondrial membrane potential loss in human HeLa cells assessed as cells with low membrane potential at 4 uM after 12 hrs by JC-1 staining-based flow cytometric analysis (reference value: 9.31%); assay type: functional

In the case of `CC(C)=CC[C@@H](OC(=O)CCCC[C@@H]1CCSC(c2ccccc2)S1)C1=CC(=O)c2c(O)ccc(O)c2C1=O` (stereo not given in full), the Activity (Mus musculus) is reported as “Active”, the Activity (HeLa [1]) is reported as 16.9% and the IC50 (HeLa [2]) is reported as 3.14 µM. The Activity (HeLa [3]) was “Active”, the inhibition [4] was “inactive” and the Activity (HeLa [5]) was 19%. The IC50 (MDA-MB-231) was 17.7 µM, the Activity (HeLa [6]) was 10% and the inhibition [7] was “Active”. The Activity (HeLa [8]) was 34.8%, the Activity (HeLa [9]) was 37.5% and the Activity (HeLa [10]) was 15.8%. For the same compound, the Activity (HeLa [11]) was 29.9%, the Activity (HeLa [12]) was 48.9% and the Activity (HeLa [13]) was 2.31%. For the same compound, the viability at 6 µM (HeLa [14]) was 29.1%, the inhibition [15] was “Active” and the Activity (HeLa [16]) was 4.74%. It also gave an Activity (HeLa [17]) of 5.03%, an IC50 (HEK-293T) of 88.8 µM and an Activity (HeLa [18]) of 15.42%. For the same compound, the Activity (HeLa [19]) was “Active”, the Activity (HeLa [20]) was 85.2% and the Activity (HeLa [21]) was “Active”. The inhibition [22] was “Active”, the Activity (HeLa [23]) was 43.5% and the Activity (HeLa [24]) was 16.37%. The Activity (HeLa [25]) was “Active”, the Activity (HeLa [26]) was 32.67% and the viability at 6 µM (HeLa [27]) was 48.8%. The Activity (HeLa [28]) was 53%, the Activity (HeLa [29]) was 6.67% and the IC50 (A549) was 16.4 µM. The Activity (HeLa [30]) was “Active” and the Activity (HeLa [31]) was 82.2%.
